Data on 9 molecules can be found in publication PMC12926254, “Novel pyrazole carboxylate derivatives as lonazolac bioisosteres with selective COX-2 inhibition: design, synthesis and anti-inflammatory activity” (Molecular Diversity, 2025).

Molecules are shown by their SMILES. Read-outs that look alike come from different tables or passages of the source. Marks after values point to notes of the source that are not given here.

Series [1] deals with carrageenan-induced rat paw edema. Briefly: Carrageenan-induced rat paw edema assay. Particulars: for Paw edema thickness ± SEM / Paw edema % inhibition: rat. It is filed as in vivo. As for the experimental part: As previously described, paw thickness was evaluated at 1, 3, and 5 h following carrageenan injection at a dose of 50 mg/kg.
On the technique in general: Carrageenan injected into the paw causes an acute inflammation.

For series [2] the test system is unchanged. Nature of the series: Carrageenan-induced rat paw edema assay. The class given is in vivo. Particulars: 25 mg/kg.
The next series relates to iNOS. Nature of the series: Inducible nitric oxide synthase (iNOS) inhibition in LPS-induced RAW 264.7 cells (ELISA). Particulars: Mus musculus, RAW264.7. The class given is cell-based. An excerpt:
NO is produced from L-arginine by iNOS and is utilized in a variety of cell signaling processes. An inducible member of the NOS family, iNOS is increased during pro-inflammatory cytokine activity as a host-defense mechanism. A commercially available quantitative ELISA kit (ab253219 Mouse iNOS Simple Step ELISA® Kit) will be used to evaluate the iNOS enzyme activity of the substances in the cell lysate in accordance with the manufacturer’s instructions.

A further series can be described thus: MTS cytotoxicity assay. Particulars: mouse, RAW 264.7 macrophages (heading: LPS-induced), read-out: Cytotoxicity IC50 (LPS-induced RAW 264.7 cells). The class given is cell-based. As for the experimental part:
Using Dulbecco’s Modified Eagle Medium (DMEM, Biowest L0060) supplemented with 10% foetal bovine serum (FBS) (Biowest, S1810) and 1% anti-biotic and anti-mycotic (Biowest, L0010-100), the RAW264.7 macrophage cell line (ATCC ® TIB-71TM) was cultivated. The cells were then incubated at 37 °C with 5% CO2 until they were confluent, which should be between 70 and 80%. After two to three days, the growth media was regularly changed. Trypsin–EDTA was then used to wash and collect the cells (Biowest, L0931-500).
The MTS (3-(4,5-dimethylthiazol-2-yl)-5-(3-carboxymethoxy-phenyl)-2-(4-sulfophenyl)-2H-tetrazolium) test (Promega, ab197010) was used to determine cell viability. In short, a 96-well plate was seeded with 5 × 10^3 cells per well, and the cells were then incubated for 24 h at 37 °C and 5% CO2. The cells were then re-incubated for 24 h at 37 °C and 5% CO2 after the medium was discarded and replaced with 180 µl of fresh growth media and 20 µl of sample (1000 ug, 250 ug, 63 ug, 16 ug, and 4 ug µg/mL). 20 µl of MTS was then added to each well, and the mixture was incubated for three hours at 37 °C with 5% CO2. […] Control cells were those that received no treatment.
For orientation: Tetrazolium assays rely on reduction of a dye to a coloured formazan, in cell work by metabolically active cells.

The next series deals with gastric mucosa. Nature of the series: Ulcerogenic liability (ulcer index). It is filed as in vivo. The note with it: 50 mg/kg orally, three successive days, rats. As for the experimental part:
[…]. […] Rats were divided into 7 groups and fasted for 18 h before drug administration. The control group received the vehicle (2.5% Tween 80). […] After 2 h, animals were fed. Rats were given the required dose orally for three successive days. After 2 h of the last dose, rats were sacrificed; the stomach of each rat was removed then opened along the greater curvature and rinsed with saline. In order to examine the stomach, it was stretched by pins on a corkboard. The gastric mucosa was carefully inspected for the occurrence of ulcers with the aid of an illuminated magnifying lens (l0x), then ulcer index was calculated according to the method described by Cho and Ogle. Lesions were counted and measured along the greater diameter using transparent ruler. Every five hemorrhagic spots were considered equivalent to 1 mm of ulcer. The ulcer index (mm) was calculated from the sum of the total length of ulcers and hemorrhagic spots in each stomach.

For a further series, the system named is TNF-α. Nature of the series: TNF-α production in LPS-activated RAW 264.7 macrophages (ELISA). The note with it: Mus musculus, RAW264.7, read-out: TNF-α IC50.
Series [3] relates to PGE2. Nature of the series: PGE2 production in LPS-activated RAW 264.7 macrophages (ELISA). The note with it: Mus musculus, RAW264.7, read-out: PGE2 IC50. (ELISA stands for enzyme-linked immunosorbent assay.)
Series [4] has as its target T1, COX-2 (Homo sapiens, UniProt P35354).
T1 construct: purchased Biovision K547
T1 sequence (P35354 18-604): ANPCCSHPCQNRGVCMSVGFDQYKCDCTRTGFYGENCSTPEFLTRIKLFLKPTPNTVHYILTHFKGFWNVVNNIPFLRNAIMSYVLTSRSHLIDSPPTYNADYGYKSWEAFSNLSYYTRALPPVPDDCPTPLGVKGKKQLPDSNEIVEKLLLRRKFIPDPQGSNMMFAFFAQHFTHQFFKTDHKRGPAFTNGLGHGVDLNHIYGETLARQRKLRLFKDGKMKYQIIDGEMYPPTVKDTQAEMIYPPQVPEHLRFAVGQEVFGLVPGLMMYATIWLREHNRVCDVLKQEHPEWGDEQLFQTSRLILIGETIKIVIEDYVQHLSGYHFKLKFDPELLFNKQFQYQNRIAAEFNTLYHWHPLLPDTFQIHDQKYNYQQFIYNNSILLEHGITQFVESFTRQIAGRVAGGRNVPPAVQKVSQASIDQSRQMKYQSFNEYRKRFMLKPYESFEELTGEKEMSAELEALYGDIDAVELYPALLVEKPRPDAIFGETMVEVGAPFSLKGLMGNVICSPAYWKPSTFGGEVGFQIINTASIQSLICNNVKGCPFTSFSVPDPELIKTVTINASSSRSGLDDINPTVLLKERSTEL
Particulars: cited from earlier work.

Series [5] has as its system PGE2. More on the design: method as in PMID 36166898. The note with it: LPS-stimulated RAW cells; cited from earlier work.
The target in a further series is T2, COX-1 (Ovis aries, UniProt P05979).
T2 construct: purchased Biovision K548
T2 sequence (P05979 25-600): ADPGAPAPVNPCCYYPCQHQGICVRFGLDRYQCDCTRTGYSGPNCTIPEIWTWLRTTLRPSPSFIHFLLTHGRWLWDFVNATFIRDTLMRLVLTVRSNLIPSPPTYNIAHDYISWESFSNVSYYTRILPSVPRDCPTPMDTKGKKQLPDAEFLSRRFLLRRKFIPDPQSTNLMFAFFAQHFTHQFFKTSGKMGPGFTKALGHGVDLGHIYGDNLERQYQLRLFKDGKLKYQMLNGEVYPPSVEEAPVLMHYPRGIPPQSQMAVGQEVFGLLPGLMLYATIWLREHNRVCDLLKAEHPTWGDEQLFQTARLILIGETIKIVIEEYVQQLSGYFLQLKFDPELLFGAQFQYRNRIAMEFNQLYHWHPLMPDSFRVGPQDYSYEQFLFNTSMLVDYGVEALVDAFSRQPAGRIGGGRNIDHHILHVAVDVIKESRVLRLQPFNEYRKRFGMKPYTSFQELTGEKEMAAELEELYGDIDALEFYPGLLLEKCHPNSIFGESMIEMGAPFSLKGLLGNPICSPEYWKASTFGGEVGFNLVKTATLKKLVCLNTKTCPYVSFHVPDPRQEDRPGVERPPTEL
Briefly: In vitro COX-1 inhibition (COX-1 Inhibitor Screening Kit-K548, Biovision). The class given is biochemical. The note with it: mean of six values ± standard deviation. As to the method:
(§1) The IC50 value of the tested compounds was determined.
COX-1 inhibitor Screening Protocol: Dissolve the tested compounds in DMSO. Use COX assay buffer to dilute the relevant test concentration by 10X before using. Place 10 µl of diluted test inhibitor or assay buffer in the specified wells instead of the sample screen (S) or enzyme control (EC; no inhibitor). To one of the wells, add 2 µl of SC560 and 8 µl of COX Assay Buffer as an inhibitor control (IC). Before using, combine 2 µl of COX Cofactor with 398 µl of COX Assay Buffer to dilute COX cofactor 200 times. Blend thoroughly. Just before using, mix 5 µl of the provided arachidonic acid with 5 µl of NaOH to make the arachidonic acid solution. Combine quickly using a vortex. To dilute the arachidonic acid/NaOH solution 10 times, add 90 µl of water. There should be 80 µl of reaction mix in each well. Using a multi-channel pipette, add 10 µl of diluted arachidonic acid/NaOH solution to each well to initiate all the reactions at once.

Series [6] has as its target T1, COX-2. Briefly: In vitro COX-2 inhibition (COX-2 Inhibitor Screening Kit-K547, Biovision). The class given is biochemical. Particulars: for COX-2 S.I.: COX-1 IC50/COX-2 IC50; for IC50: mean of six values ± standard deviation. As for the experimental part:
as §1
COX-2 inhibitor Screening Protocol: Dissolve the tested compounds in DMSO. Use COX Assay Buffer to dilute the relevant test concentration by 10X before using. Place 10 µl of diluted test inhibitor or Assay Buffer in the specified wells instead of the sample screen (S) or enzyme control (EC; no inhibitor). […] Before using, combine 2 µl of COX Cofactor with 398 µl of COX Assay Buffer to dilute COX Cofactor 200 times. Blend thoroughly. Just before using, mix 5 µl of the provided arachidonic acid with 5 µl of NaOH to make the arachidonic acid solution. Combine quickly using a vortex. To dilute the arachidonic acid/NaOH solution 10 times, add 90 µl of water. There should be 80 µl of reaction mix in each well. Using a multi-channel pipette, add 10 µl of diluted arachidonic acid/NaOH solution into each well to initiate the reactions concurrently.

The mark [7] stands for this setting: 3 h after carrageenan, 50 mg/kg.
[8] abbreviates: 5 h after carrageenan, 50 mg/kg.

As a reminder, the ED50 is the midpoint of the dose-response relation. Read a low ED50 as greater potency. The term IC50 denotes the concentration needed to halve the response being measured. Regarding `Cc1ccc(-c2cc(C(F)(F)F)nn2-c2ccc(S(N)(=O)=O)cc2)cc1` [Celecoxib, celecoxib, reference compound], the “% inhibition (edema)” value is 97.48% in series [1] (50 mg/kg) and 34.97% in series [2]. In addition, the “Paw edema thickness ± SEM” value turned out to be 3.43 ± 0.004 mm in series [1] (1 h after carrageenan, 50 mg/kg); 3.1 ± 0.011 mm in series [1] (setting [7]); 2.52 ± 0.0095 mm in series [1] (setting [8]). Further, the “Paw edema % inhibition” value in series [1] (setting [7]) is 38.3%; in [1] (setting [8]), 56.3%. For the same molecule, the ED50 in series [1] (Rattus norvegicus, dose producing 50% edema inhibition) was determined as 40.4 mg/kg. The IC50 with iNOS worked out at 0.48 ± 0.04 µM; with TNF-α, 0.87 ± 0.03 µM; in the series with PGE2 [3] it was 0.38 ± 0.027 µM. In addition, the IC50 at 24 h in “MTS cytotoxicity assay” is 149 ± 5.3 µM. Moreover, in the series with gastric mucosa, the “Average no of ulcer” value was 0.48 ± 0.015***^b. Also, the Average severity in the series on gastric mucosa is 0.66 ± 0.026***^b.
In the case of `Cc1ccc(N/N=C2\C(=N)N(c3ccc(S(N)(=O)=O)cc3)N=C2N)cc1` [Compound 8a], on COX-2 [4], the “COX-2 selectivity index (S.I.)” value is 8.41.
As to `N=C1/C(=N\Nc2ccc(Cl)cc2)C(N)=NN1c1ccc(S(N)(=O)=O)cc1` [Compound 8b], at COX-2 [4], the “COX-2 selectivity index (S.I.)” value is listed as 10.55.
Take `O=C(O)COc1ccc(C(=O)/C=C/c2cn(-c3ccccc3)nc2-c2ccc([N+](=O)[O-])cc2)cc1` [Compound 10]: the IC50 with PGE2 [5] was 11 µM.
With `CCOC(=O)COc1ccc(C2=NN(c3ccc(S(C)(=O)=O)cc3)C(c3ccccc3Br)C2)cc1` (centres unmarked) [Compound 15 g, Ethyl 2-(4-(5-(2-bromophenyl)-1-(4-(methylsulfonyl)phenyl)-4,5-dihydro-1H-pyrazol-3-yl)phenoxy)acetate], the concentration for half-maximal inhibition (IC50) at COX-1 came out at 8.59 ± 0.33 µM. Further, on COX-2 [6], the “COX-2 S.I.” value is recorded as 15.07 and the IC50 came out at 0.575 ± 0.019 µM.
For `CCOC(=O)COc1ccc(C2=NN(c3ccc(S(C)(=O)=O)cc3)C(c3ccccc3)C2)cc1` (centres unmarked) [Compound 15a, Ethyl 2-(4-(1-(4-(methylsulfonyl)phenyl)-5-phenyl-4,5-dihydro-1H-pyrazol-3-yl)phenoxy) acetate], in that order: 7.42 ± 0.45 µM, 1.90 and 3.9 ± 0.129 µM.
For `CCOC(=O)COc1ccc(C2=NN(c3ccc(S(C)(=O)=O)cc3)C(c3ccc(C)cc3)C2)cc1` (centres unmarked) [Compound 15b, Ethyl 2-(4-(1-(4-(methylsulfonyl)phenyl)-5-(p-tolyl)-4,5-dihydro-1H-pyrazol-3-yl)phenoxy)acetate], in that order: 11.4 ± 0.42 µM, 5.89 and 1.94 ± 0.064 µM.
For `CCOC(=O)COc1ccc(C2=NN(c3ccc(S(C)(=O)=O)cc3)C(c3ccc(Cl)cc3)C2)cc1` (centres unmarked) [Compound 15e, Ethyl 2-(4-(5-(4-chlorophenyl)-1-(4-(methylsulfonyl)phenyl)-4,5-dihydro-1H-pyrazol-3-yl)phenoxy)acetate], in that order: 3.01 ± 0.12 µM, 4.05 and 0.742 ± 0.025 µM.
The molecule `CCOC(=O)COc1ccc(C2=NN(c3ccc(S(C)(=O)=O)cc3)C(c3ccc([N+](=O)[O-])cc3)C2)cc1` (centres unmarked) [Compound 15f, Ethyl 2-(4-(1-(4-(methylsulfonyl)phenyl)-5-(4-nitrophenyl)-4,5-dihydro-1H-pyrazol-3-yl)phenoxy)acetate] registered an IC50 on COX-1 of 6.83 ± 0.25 µM. Also, on COX-2 [6], the “COX-2 S.I.” value came out at 4.30 and it took 1.59 ± 0.052 µM to reach half-maximal inhibition (IC50).
